The term viability, T/C denotes the ratio of treated to control.
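Note: spheroids exposed to compounds for seven days.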

One assay relates to 695427-040-R-J1-PDC complex spheroid viability. The experiment in a line: Anticancer human tumor 695427-040-R-J1-PDC patient-derived colon adenocarcinoma cell line growth inhibition [POLQ]. As to conditions: second compound 0.0316 µM; first compound 3.16 µM; active compounds read low. The method, then: Multicellular complex tumor spheroid response to Polymerase (POL) inhibitors (novobiocin, ART-558, RP6685) in combination with a variety of drugs and investigational agents in selected tumor cell lines
The POL inhibitors (novobiocin, ART-558, and RP6685) were evaluated both individually and in combination with standard of care and investigational anticancer small molecules within a complex spheroid model of solid tumors. . Complex spheroids include a stromal component modeled by human endothelial cells (HUVEC) and fibroblasts modeled by human mesenchymal stem cells (MSCs). The concentration ranges selected for each drug and investigational agent were based upon clinically achievable concentrations if the clinical Cmax of the agent was known.
Compounds. The drugs and investigational agents: novobiocin (NSC847541), ART-558 (NSC835418), RP-6685 (NSC848927), peposertib (NSC802822), ceralasertib (NSC780249), elimusertib (NSC800525), camonsertib (NSC841442), AZD-1390 (NSC803789), olaparib (NSC753686), talazoparib (NSC767125), rucaparib (NSC756644), sotorasib (NSC818433), MRTX-1133 (NSC836407), SN-38 (NSC673596), topotecan (NSC609699), epotoside (NSC141540), doxorubicin (NSC123127), gemcitabine (NSC613327), 5-fluorouracil (NSC19893), paclitaxel (NSC125973), vemurafenib (NSC761431), MSA-2 (NSC828583), SN-011 (NSC837082), adavosertib (NSC754352), prexasertib (NSC758257), carboplatin (NSC241240) and oxaliplatin (NSC266046), were obtained from the National Cancer Institute (NCI) Developmental Therapeutics Program Chemical Repository (21). The FDA-approved anticancer drug set is available from the Developmental Therapeutics Program at https://dtp.cancer.gov/organization/dscb/obtaining/. […] The stock solutions were prepared in dimethyl sulfoxide (DMSO, Sigma-Aldrich, St. Louis, MO, cat. D2650), except for the platinum compounds which were prepared in saline (Quality Biological, Gaithersburg, MD, cat. 114-055-101), at 800-fold the tested concentration and stored at -70 degrees C prior to their use. All drugs and investigational agents were tested over a range starting from a high concentration at or near the clinical Cmax and decreasing in half-log increments. If the clinical Cmax for an agent had not been determined, the highest concentration tested was 10 microM, except for SN-38, which was tested at a high concentration of 1 microM.
Cell Culture. All cells were maintained in an incubator at 37 degrees C and 5% CO2 with 95% humidity. The PDC lines were cultured according to standard operating procedures established by the NCI PDMR (https://pdmr.cancer.gov). Table 3 of the manuscript, lists the cell lines along with the number of the three cell types plated to form the mct-spheroids and media for tumor cell growth. After thawing, all PDC lines, except 997537-175-T-J1-PDC and 415267-285-R-J2-PDC, were cultured in Matrigel-coated flasks prepared with a working solution of 1X Ham's F-12 nutrient mix, without supplementation (Thermo Fisher Scientific, cat. 11765054), 100 U/mL penicillin-streptomycin (Thermo Fisher Scientific, cat. 15140122), and 2.5% Matrigel (Corning Inc., Corning, NY, cat. 354248) for the first three passages. The two PDC lines 997537-175-T-J1-PDC and 415267-285-R-J2-PDC were cultured on uncoated flasks. The 857933-349-R-J2-PDC line was cultured in 6C/Colon 1B media containing advanced DMEM/F-12 (Thermo Fisher Scientific, cat. 12634028), 10 mM HEPES (Thermo Fisher Scientific, cat. 15630080), 1X GlutaMAX supplement (Thermo Fisher Scientific, cat. 35050061), 0.1 mg/mL primocin (InvivoGen, San Diego, CA, cat. ant-pm-2), 10% defined fetal bovine serum, heat inactivated (HyClone Laboratories Inc., Logan, UT, cat. SH30070.03HI), 50% L-WRN conditioned media (ATCC, cat. CRL-3276), 1.25 mM N-Acetyl-L-cysteine (Sigma-Aldrich, cat. A9165), 10 mM nicotinamide (Sigma-Aldrich, cat. N0636), 1X B-27 supplement (Thermo Fisher Scientific, cat. 17504044), 1X N-2 supplement (Thermo Fisher Scientific, cat. […]
`O=C(Nc1ccc(O)c(NS(=O)(=O)c2ccc(F)cc2)c1)c1ccc(-c2ccccc2)cc1` + Cc1cccc(N(C)C(=O)C2C(O)CCN2c2nc(C)cc(C(F)(F)F)c2C#N)c1: the viability, T/C was 108%.

As for `Nc1ccn(C2OC(CO)C(O)C2(F)F)c(=O)n1` (configuration not stated) + Nc1ccc(C#CCN(C(=O)Cc2ncc(C(F)(F)F)cc2C(F)(F)F)c2ccc(F)cc2)nn1, the viability, T/C is 81.8%.

The same assay, now with this note: second compound 0.0316 µM; first compound 10 µM; active compounds read low.
With `COc1cc2cc(C(=O)CCC(=O)O)sc2cc1OC` + Cc1cccc(N(C)C(=O)C2C(O)CCN2c2nc(C)cc(C(F)(F)F)c2C#N)c1, the viability, T/C is 92%.

With `O=C(Nc1ccc(O)c(NS(=O)(=O)c2ccc(F)cc2)c1)c1ccc(-c2ccccc2)cc1` + Cc1cccc(N(C)C(=O)C2C(O)CCN2c2nc(C)cc(C(F)(F)F)c2C#N)c1, the viability, T/C was 98.4%.

With `Nc1ccn(C2OC(CO)C(O)C2(F)F)c(=O)n1` (configuration not stated) + Nc1ccc(C#CCN(C(=O)Cc2ncc(C(F)(F)F)cc2C(F)(F)F)c2ccc(F)cc2)nn1, the viability, T/C is 66.6%.

Staying with this assay, now noted: second compound 0.1 µM; first compound 0.0316 µM; active compounds read low.
As for `COc1cc2cc(C(=O)CCC(=O)O)sc2cc1OC` + Cc1cccc(N(C)C(=O)C2C(O)CCN2c2nc(C)cc(C(F)(F)F)c2C#N)c1, the viability, T/C is 111%.

Consider `O=C(Nc1ccc(O)c(NS(=O)(=O)c2ccc(F)cc2)c1)c1ccc(-c2ccccc2)cc1` + Cc1cccc(N(C)C(=O)C2C(O)CCN2c2nc(C)cc(C(F)(F)F)c2C#N)c1, for which the viability, T/C is 105%.

Regarding `Nc1ccn(C2OC(CO)C(O)C2(F)F)c(=O)n1` (configuration not stated) + Nc1ccc(C#CCN(C(=O)Cc2ncc(C(F)(F)F)cc2C(F)(F)F)c2ccc(F)cc2)nn1, the viability, T/C is 98%.

The same assay, now with this note: second compound 0.1 µM; first compound 0.1 µM; active compounds read low.
For `COc1cc2cc(C(=O)CCC(=O)O)sc2cc1OC` + Cc1cccc(N(C)C(=O)C2C(O)CCN2c2nc(C)cc(C(F)(F)F)c2C#N)c1, the viability, T/C is 97.1%.

Regarding `O=C(Nc1ccc(O)c(NS(=O)(=O)c2ccc(F)cc2)c1)c1ccc(-c2ccccc2)cc1` + Cc1cccc(N(C)C(=O)C2C(O)CCN2c2nc(C)cc(C(F)(F)F)c2C#N)c1, the viability, T/C was 101%.

Turning to `Nc1ccn(C2OC(CO)C(O)C2(F)F)c(=O)n1` (configuration not stated) + Nc1ccc(C#CCN(C(=O)Cc2ncc(C(F)(F)F)cc2C(F)(F)F)c2ccc(F)cc2)nn1, the viability, T/C was 96.1%.

The same assay, now with this note: second compound 0.1 µM; first compound 0.316 µM; active compounds read low.
`COc1cc2cc(C(=O)CCC(=O)O)sc2cc1OC` + Cc1cccc(N(C)C(=O)C2C(O)CCN2c2nc(C)cc(C(F)(F)F)c2C#N)c1: the viability, T/C was 98.2%.

`O=C(Nc1ccc(O)c(NS(=O)(=O)c2ccc(F)cc2)c1)c1ccc(-c2ccccc2)cc1` + Cc1cccc(N(C)C(=O)C2C(O)CCN2c2nc(C)cc(C(F)(F)F)c2C#N)c1: the viability, T/C was 95.9%.

For the molecule `Nc1ccn(C2OC(CO)C(O)C2(F)F)c(=O)n1` (configuration not stated) + Nc1ccc(C#CCN(C(=O)Cc2ncc(C(F)(F)F)cc2C(F)(F)F)c2ccc(F)cc2)nn1, the viability, T/C was 90.8%.

Still in this assay, the particulars now being: second compound 0.1 µM; first compound 1 µM; active compounds read low.
Regarding `COc1cc2cc(C(=O)CCC(=O)O)sc2cc1OC` + Cc1cccc(N(C)C(=O)C2C(O)CCN2c2nc(C)cc(C(F)(F)F)c2C#N)c1, the viability, T/C was 95.3%.

Consider `O=C(Nc1ccc(O)c(NS(=O)(=O)c2ccc(F)cc2)c1)c1ccc(-c2ccccc2)cc1` + Cc1cccc(N(C)C(=O)C2C(O)CCN2c2nc(C)cc(C(F)(F)F)c2C#N)c1, for which the viability, T/C is 99.5%.

Turning to `Nc1ccn(C2OC(CO)C(O)C2(F)F)c(=O)n1` (configuration not stated) + Nc1ccc(C#CCN(C(=O)Cc2ncc(C(F)(F)F)cc2C(F)(F)F)c2ccc(F)cc2)nn1, the viability, T/C is 81.3%.

Staying with this assay, now noted: second compound 0.1 µM; first compound 3.16 µM; active compounds read low.
As for `COc1cc2cc(C(=O)CCC(=O)O)sc2cc1OC` + Cc1cccc(N(C)C(=O)C2C(O)CCN2c2nc(C)cc(C(F)(F)F)c2C#N)c1, the viability, T/C is 111%.

With `O=C(Nc1ccc(O)c(NS(=O)(=O)c2ccc(F)cc2)c1)c1ccc(-c2ccccc2)cc1` + Cc1cccc(N(C)C(=O)C2C(O)CCN2c2nc(C)cc(C(F)(F)F)c2C#N)c1, the viability, T/C was 112%.

In the case of `Nc1ccn(C2OC(CO)C(O)C2(F)F)c(=O)n1` (configuration not stated) + Nc1ccc(C#CCN(C(=O)Cc2ncc(C(F)(F)F)cc2C(F)(F)F)c2ccc(F)cc2)nn1, the viability, T/C was 80.4%.

Staying with this assay, now noted: second compound 0.1 µM; first compound 10 µM; active compounds read low.
For the molecule `COc1cc2cc(C(=O)CCC(=O)O)sc2cc1OC` + Cc1cccc(N(C)C(=O)C2C(O)CCN2c2nc(C)cc(C(F)(F)F)c2C#N)c1, the viability, T/C is 88.3%.

Take `O=C(Nc1ccc(O)c(NS(=O)(=O)c2ccc(F)cc2)c1)c1ccc(-c2ccccc2)cc1` + Cc1cccc(N(C)C(=O)C2C(O)CCN2c2nc(C)cc(C(F)(F)F)c2C#N)c1: the viability, T/C is 88.2%.

On to `Nc1ccn(C2OC(CO)C(O)C2(F)F)c(=O)n1` (configuration not stated) + Nc1ccc(C#CCN(C(=O)Cc2ncc(C(F)(F)F)cc2C(F)(F)F)c2ccc(F)cc2)nn1, for which the viability, T/C is 62.2%.

The same assay, now with this note: second compound 0.316 µM; first compound 0.0316 µM; active compounds read low.
Regarding `COc1cc2cc(C(=O)CCC(=O)O)sc2cc1OC` + Cc1cccc(N(C)C(=O)C2C(O)CCN2c2nc(C)cc(C(F)(F)F)c2C#N)c1, the viability, T/C was 112%.

For the molecule `O=C(Nc1ccc(O)c(NS(=O)(=O)c2ccc(F)cc2)c1)c1ccc(-c2ccccc2)cc1` + Cc1cccc(N(C)C(=O)C2C(O)CCN2c2nc(C)cc(C(F)(F)F)c2C#N)c1, the viability, T/C is 104%.

Turning to `Nc1ccn(C2OC(CO)C(O)C2(F)F)c(=O)n1` (configuration not stated) + Nc1ccc(C#CCN(C(=O)Cc2ncc(C(F)(F)F)cc2C(F)(F)F)c2ccc(F)cc2)nn1, the viability, T/C was 106%.

Still in this assay, the particulars now being: second compound 0.316 µM; first compound 0.1 µM; active compounds read low.
`COc1cc2cc(C(=O)CCC(=O)O)sc2cc1OC` + Cc1cccc(N(C)C(=O)C2C(O)CCN2c2nc(C)cc(C(F)(F)F)c2C#N)c1: the viability, T/C was 106%.

For `O=C(Nc1ccc(O)c(NS(=O)(=O)c2ccc(F)cc2)c1)c1ccc(-c2ccccc2)cc1` + Cc1cccc(N(C)C(=O)C2C(O)CCN2c2nc(C)cc(C(F)(F)F)c2C#N)c1, the viability, T/C was 103%.

Turning to `Nc1ccn(C2OC(CO)C(O)C2(F)F)c(=O)n1` (configuration not stated) + Nc1ccc(C#CCN(C(=O)Cc2ncc(C(F)(F)F)cc2C(F)(F)F)c2ccc(F)cc2)nn1, the viability, T/C was 102%.

Staying with this assay, now noted: second compound 0.316 µM; first compound 0.316 µM; active compounds read low.
On to `COc1cc2cc(C(=O)CCC(=O)O)sc2cc1OC` + Cc1cccc(N(C)C(=O)C2C(O)CCN2c2nc(C)cc(C(F)(F)F)c2C#N)c1, for which the viability, T/C was 106%.

For `O=C(Nc1ccc(O)c(NS(=O)(=O)c2ccc(F)cc2)c1)c1ccc(-c2ccccc2)cc1` + Cc1cccc(N(C)C(=O)C2C(O)CCN2c2nc(C)cc(C(F)(F)F)c2C#N)c1, the viability, T/C is 97.4%.

As to `Nc1ccn(C2OC(CO)C(O)C2(F)F)c(=O)n1` (configuration not stated) + Nc1ccc(C#CCN(C(=O)Cc2ncc(C(F)(F)F)cc2C(F)(F)F)c2ccc(F)cc2)nn1, the viability, T/C is 75.9%.

These data come from PubChem BioAssay AID1963840 (Molecular Pharmacology Branch, DTP, NCI, 2024).
